The values below come from patent publication US11964953B2, “Substituted aminothiazoles as DGKzeta inhibitors for immune activation” (Bayer Aktiengesellschaft, priority 2020, dated 2024).

In general, IC50 refers to the point on the concentration scale where inhibition reaches its midpoint.

The target of this experiment is human DGKζ (Homo sapiens (Human), UniProt Q13574). The experiment in a line: Human DGKζ kinase activity inhibition assay (ADP-Glo). Conditions: in vitro human DGKζ kinase activity inhibition assay; read-out: IC50. It counts as biochemical. The protocol: Human DGKζ Kinase Activity Inhibition Assay. Human diacylglycerol kinase zeta (DGKζ) inhibitory activity of compounds of the present invention was quantified employing the human DGKζ kinase activity assay as described in the following paragraphs. In essence, the enzyme activity was measured by quantification of the adenosine-di-phosphate (ADP) generated as a co-product of the enzyme reaction via the “ADP-Glo™ Kinase Assay” kit from the company Promega. This detection system works as follows: In a first step the adenosine-tri-phosphate (ATP) not consumed in the kinase reaction is quantitatively converted to cyclic adenosine-mono-phosphate (cAMP) employing an adenylate cyclase (“ADP-Glo-reagent”), then the adenylate cyclase is stopped and the ADP generated in the kinase reaction is converted to ATP, which subsequently generates in a luciferase-based reaction a glow-luminescence signal (“Kinase Detection Reagent”). C-terminally FLAG-tagged, recombinant full-length human DGKζ (in house expressed in baculovirus infected insect cells, purified using anti-Flag pulldown and size exclusion chromatography) was used as enzyme. As an alternative, commercially available enzyme by Carnabio can be used. […] Subsequently, 22.55 volumes of a 510 mM solution of octyl-β-D-glucopyranoside (Sigma-Aldrich, Cat. #O8001-10G) in 50 mM MOPS buffer (pH 7.4) were added, and the mixture was sonicated in an ultrasonic bath for 20 s. […] Viewlux™ from Perkin-Elmer). The amount of emitted light was taken as a measure for the amount of ADP generated and thereby for the activity of the DGKζ.
For orientation: ADP-Glo first removes unused ATP, then detects ADP through luciferase.

human DGKζ, sequence (Q13574 other isoform, or with tags, fused parts or gaps): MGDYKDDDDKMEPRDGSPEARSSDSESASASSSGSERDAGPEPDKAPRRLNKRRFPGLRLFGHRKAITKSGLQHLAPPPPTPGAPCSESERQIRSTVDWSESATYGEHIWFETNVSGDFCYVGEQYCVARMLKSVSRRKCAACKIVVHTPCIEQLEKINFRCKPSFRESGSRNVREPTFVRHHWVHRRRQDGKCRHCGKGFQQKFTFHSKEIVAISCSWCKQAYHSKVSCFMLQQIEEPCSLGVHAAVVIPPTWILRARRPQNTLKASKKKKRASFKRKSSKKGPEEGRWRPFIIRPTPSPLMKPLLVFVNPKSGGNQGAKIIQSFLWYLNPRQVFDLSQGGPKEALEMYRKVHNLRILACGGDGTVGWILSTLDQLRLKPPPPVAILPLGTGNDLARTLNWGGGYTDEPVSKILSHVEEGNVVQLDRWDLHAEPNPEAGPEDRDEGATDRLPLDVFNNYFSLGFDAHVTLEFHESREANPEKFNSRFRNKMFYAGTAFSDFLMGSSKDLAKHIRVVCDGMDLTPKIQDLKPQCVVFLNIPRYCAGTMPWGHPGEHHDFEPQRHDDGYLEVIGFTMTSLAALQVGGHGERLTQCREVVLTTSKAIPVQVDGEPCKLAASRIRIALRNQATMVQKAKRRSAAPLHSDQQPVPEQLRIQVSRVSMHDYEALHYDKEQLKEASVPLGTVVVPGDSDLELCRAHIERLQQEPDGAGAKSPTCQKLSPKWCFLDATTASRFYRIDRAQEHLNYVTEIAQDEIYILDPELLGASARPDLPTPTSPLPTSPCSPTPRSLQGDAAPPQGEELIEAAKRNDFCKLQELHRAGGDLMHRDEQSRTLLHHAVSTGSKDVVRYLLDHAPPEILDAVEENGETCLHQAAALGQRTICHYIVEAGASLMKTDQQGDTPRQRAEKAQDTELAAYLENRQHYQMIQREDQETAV

In the case of `CC(C(N)=O)N(c1ccc(F)cc1)c1nc(N)c(C(=O)c2ccc(OCC(=O)N3CCC[C@H]3C(N)=O)cc2)s1` (mixture of isomers) [Example 110, (2S)-1-[2-[4-[4-amino-2-(N-[2-amino-(1RS)-methyl-2-oxo-ethyl]-4-fluoro-anilino)thiazole-5-carbonyl]phenoxy]acetyl]pyrrolidine-2-carboxamide], the IC50 is 366 nM.

As for `CC(C(N)=O)N(c1ccc(F)cc1)c1nc(N)c(C(=O)c2ccc(C(=O)NC[C@H](C)O)cc2)s1` (mixture of isomers) [Example 263, 4-[4-amino-2-(N-(2-amino-1-methyl-2-oxo-ethyl)-4-fluoro-anilino)thiazole-5-carbonyl]-N-[(2S)-2-hydroxypropyl]benzamide (mixture of stereoisomers)], the IC50 is 539 nM.

Regarding `CC(C(N)=O)N(c1ccc(F)cc1)c1nc(N)c(C(=O)c2ccc(C(=O)NC[C@@H](C)O)cc2)s1` (mixture of isomers) [Example 265, 4-[4-amino-2-(N-(2-amino-1-methyl-2-oxo-ethyl)-4-fluoro-anilino)thiazole-5-carbonyl]-N-[(2R)-2-hydroxypropyl]benzamide (mixture of stereoisomers)], the IC50 was determined as 459 nM.

Consider `COc1ccc(N(c2nc(N)c(C(=O)c3ccccc3)s2)C(C)C(N)=O)c(C)c1` (racemic) [Example 1, rac-2-(N-(4-amino-5-benzoyl-thiazol-2-yl)-4-methoxy-2-methyl-anilino)propanamide], for which the IC50 was 946 nM.

Regarding `CC(C(N)=O)N(c1ccc(N(C)C)cc1)c1nc(N)c(C(=O)c2ccccc2)s1` (racemic) [Example 2, rac-2-[N-(4-amino-5-benzoyl-thiazol-2-yl)-4-(dimethylamino)anilino]propanamide], the IC50 was 935 nM.

On to `CC(C)Oc1ccc(N(c2nc(N)c(C(=O)c3ccccc3)s2)C(C)C(N)=O)cc1` (racemic) [Example 3, rac-2-(N-(4-amino-5-benzoyl-thiazol-2-yl)-4-isopropoxy-anilino)propanamide], for which the half-maximal inhibitory concentration (IC50) was 927 nM.

Consider `CC(C(N)=O)N(c1nc(N)c(C(=O)c2ccccc2)s1)c1c(F)cc(F)cc1F` (racemic) [Example 4, rac-2-(N-(4-amino-5-benzoyl-thiazol-2-yl)-2,4,6-trifluoro-anilino)propanamide], for which the IC50 came to 833 nM.

In the case of `CC(C(N)=O)N(c1nc(N)c(C(=O)c2ccccc2)s1)c1ccc(F)cc1Br` (racemic) [Example 5, rac-2-(N-(4-amino-5-benzoyl-thiazol-2-yl)-2-bromo-4-fluoro-anilino)propanamide], the IC50 turned out to be 757 nM.

In the case of `Cc1ccc(C(=O)c2sc(N(c3ccc(F)cc3)C(C)C(N)=O)nc2N)cn1` (racemic) [Example 6, rac-2-(N-[4-amino-5-(6-methylpyridine-3-carbonyl)thiazol-2-yl]-4-fluoro-anilino)propanamide], the IC50 was found to be 740 nM.

`CC(C(N)=O)N(c1ccc(F)cc1)c1nc(N)c(C(=O)c2ccncc2)s1` (racemic) [Example 7, rac-2-(N-[4-amino-5-(pyridine-4-carbonyl)thiazol-2-yl]-4-fluoro-anilino)propanamide]: the IC50 is 705 nM.

Consider `CC(C(N)=O)N(c1ccc(F)cc1)c1nc(N)c(C(=O)c2ccccc2F)s1` (racemic) [Example 8, rac-2-(N-[4-amino-5-(2-fluorobenzoyl)thiazol-2-yl]-4-fluoro-anilino)propanamide], for which the IC50 came to 618 nM.

In the case of `CC(C(N)=O)N(c1ccc(C#N)cc1)c1nc(N)c(C(=O)c2ccccc2)s1` (racemic) [Example 9, rac-2-(N-(4-amino-5-benzoyl-thiazol-2-yl)-4-cyano-anilino)propanamide], the IC50 was 536 nM.

For the molecule `CC(C(N)=O)N(c1ccc(F)cc1)c1nc(N)c(C(=O)c2ccc(Cl)c(C(F)(F)F)c2)s1` (racemic) [Example 10, rac-2-(N-[4-amino-5-[4-chloro-3-(trifluoromethyl)benzoyl]thiazol-2-yl]-4-fluoro-anilino)propanamide], the IC50 came to 425 nM.

Consider `CC(C(N)=O)N(c1nc(N)c(C(=O)c2ccccc2)s1)c1ccc(F)cc1Cl` (racemic) [Example 11, rac-2-(N-(4-amino-5-benzoyl-thiazol-2-yl)-2-chloro-4-fluoro-anilino)propanamide], for which the concentration for half-maximal inhibition (IC50) was 406 nM.

As for `CC(C(N)=O)N(c1ccc(F)cc1)c1nc(N)c(C(=O)c2cccc(C#N)c2)s1` (racemic) [Example 12, rac-2-(N-[4-amino-5-(3-cyanobenzoyl)thiazol-2-yl]-4-fluoro-anilino)propanamide], the IC50 stood at 364 nM.

For `CC(C(N)=O)N(c1ccc(N(C)C)c(Cl)c1)c1nc(N)c(C(=O)c2ccccc2)s1` (racemic) [Example 13, rac-2-[N-(4-amino-5-benzoyl-thiazol-2-yl)-3-chloro-4-(dimethylamino)anilino]propanamide], the IC50 came to 357 nM.

As to `COc1ccc(C(=O)c2sc(N(c3ccc(F)cc3)C(C)C(N)=O)nc2N)cn1` (racemic) [Example 14, rac-2-(N-[4-amino-5-(6-methoxypyridine-3-carbonyl)thiazol-2-yl]-4-fluoro-anilino)propanamide], the IC50 was 334 nM.

Take `CNC(=O)c1ccc(C(=O)c2sc(N(c3ccc(F)cc3)C(C)C(N)=O)nc2N)cc1` (racemic) [Example 15, rac-4-[4-amino-2-(N-[2-amino-1-methyl-2-oxo-ethyl]-4-fluoro-anilino)thiazole-5-carbonyl]-N-methyl-benzamide]: the IC50 is 266 nM.

As for `CC(C(N)=O)N(c1ccc(F)cc1)c1nc(N)c(C(=O)c2cccc(F)c2)s1` (racemic) [Example 16, rac-2-(N-[4-amino-5-(3-fluorobenzoyl)thiazol-2-yl]-4-fluoro-anilino)propanamide], the IC50 is 283 nM.

With `COc1ccc(N(c2nc(N)c(C(=O)c3ccccc3)s2)C(C)C(N)=O)cc1Cl` (racemic) [Example 17, rac-2-(N-(4-amino-5-benzoyl-thiazol-2-yl)-3-chloro-4-methoxy-anilino)propanamide], the IC50 stood at 261 nM.

Turning to `COc1ccc(N(c2nc(N)c(C(=O)c3ccc(F)cc3)s2)C(C)C(N)=O)cc1` (racemic) [Example 18, rac-2-(N-[4-amino-5-(4-fluorobenzoyl)thiazol-2-yl]-4-methoxy-anilino)propanamide], the IC50 was 207 nM.

Take `CC(C(N)=O)N(c1ccc(F)cc1)c1nc(N)c(C(=O)c2ccc(S(C)(=O)=O)cc2)s1` (racemic) [Example 19, rac-2-(N-[4-amino-5-(4-methylsulfonylbenzoyl)thiazol-2-yl]-4-fluoro-anilino)propanamide]: the IC50 was determined as 200 nM.

As for `CC(C(N)=O)N(c1ccc(F)cc1)c1nc(N)c(C(=O)c2ccc(-n3ccnc3)cc2)s1` (racemic) [Example 20, rac-2-(N-[4-amino-5-(4-imidazol-1-ylbenzoyl)thiazol-2-yl]-4-fluoro-anilino)propanamide], the IC50 worked out at 161 nM.

`CC(C(N)=O)N(c1ccc(F)cc1)c1nc(N)c(C(=O)c2ccc(C#N)c(F)c2)s1` (racemic) [Example 21, rac-2-(N-[4-amino-5-(4-cyano-3-fluoro-benzoyl)thiazol-2-yl]-4-fluoro-anilino)propanamide]: the IC50 came out at 142 nM.

Consider `CC(C(N)=O)N(c1ccc(F)cc1)c1nc(N)c(C(=O)c2ccc(C#N)cc2F)s1` (racemic) [Example 22, rac-2-(N-[4-amino-5-(4-cyano-2-fluoro-benzoyl)thiazol-2-yl]-4-fluoro-anilino)propanamide], for which the IC50 is 130 nM.

For the molecule `COc1ccc(C(=O)c2sc(N(c3ccc(F)cc3)C(C)C(N)=O)nc2N)c(F)c1` (racemic) [Example 23, rac-2-(N-[4-amino-5-(2-fluoro-4-methoxy-benzoyl)thiazol-2-yl]-4-fluoro-anilino)propanamide], the IC50 was found to be 130 nM.

For the molecule `CC(C(N)=O)N(c1ccc(OC(F)(F)F)cc1)c1nc(N)c(C(=O)c2ccccc2)s1` (racemic) [Example 24, rac-2-[N-(4-amino-5-benzoyl-thiazol-2-yl)-4-(trifluoromethoxy)anilino]propanamide], the IC50 came to 115 nM.

As for `CC(C(N)=O)N(c1ccc(F)cc1)c1nc(N)c(C(=O)c2ccc(F)c(F)c2)s1` (racemic) [Example 25, rac-2-(N-[4-amino-5-(3,4-difluorobenzoyl)thiazol-2-yl]-4-fluoro-anilino)propanamide], the IC50 amounted to 101 nM.

Consider `CC(C(N)=O)N(c1ccc(F)cc1)c1nc(N)c(C(=O)c2ccc(Cl)c(Cl)c2)s1` (racemic) [Example 26, rac-2-(N-[4-amino-5-(3,4-dichlorobenzoyl)thiazol-2-yl]-4-fluoro-anilino)propanamide], for which the IC50 is 74.8 nM.

`CC(C(N)=O)N(c1ccc(OC(F)(F)F)cc1)c1nc(N)c(C(=O)c2ccc(F)cc2)s1` (racemic) [Example 27, rac-2-[N-[4-amino-5-(4-fluorobenzoyl)thiazol-2-yl]-4-(trifluoromethoxy)anilino]propanamide]: the IC50 amounted to 69.6 nM.

In the case of `CC(C(N)=O)N(c1ccc(C(F)(F)F)cc1)c1nc(N)c(C(=O)c2ccccc2)s1` (racemic) [Example 28, rac-2-[N-(4-amino-5-benzoyl-thiazol-2-yl)-4-(trifluoromethyl)anilino]propanamide], the IC50 is 61 nM.
